According to US5369016A, “Peptide amidase and the use thereof” (Forschungszentrum Juelich GmbH, priority 1990, dated 1994):
Where two headings read alike, the source gives them in different places. Peptide text beside a SMILES is read from it. * marks the point of attachment. pNA = O=[N+]([O-])c1ccc(N*)cc1; Cbz = O=C(OCc1ccccc1)*; Boc = CC(C)(C)OC(=O)*

Experiments:
peptide amidase [1] = assay: Enzymatic reaction of peptide amides with a chain length of greater than three amino acids; format: biochemical, orange
Procedure: Enzymatic reaction of peptide amides with a chain length of greater than
three amino acids. Reaction conditions: 10 mM substrate, 40 μg/ml
50 mM tris/HCL, pH 7.0, temp. 30° C.

peptide amidase [2] = assay: Effect of chelating agents, metal cations and enzyme inhibitors on peptide amidase activity; format: biochemical, navel oranges
Procedure: The effect of the following inhibitors on peptide amidase activity was determined under standard conditions according to the methods described in Example 1. The inhibitor concentration was 10 mM in each case.

[3] = tested on: peptide amidase from orange flavedo; assay: Cleavage of amides of amino acids (TLC); format: biochemical; design: scale not given here; details: 50 μg/ml; 10 mM substrate; 24 h; 0.05M KPi, pH 7.5; * = slight traces
Procedure: A DEAE-purified enzyme was employed in these experiments (volumetric activity: 40 U/ml for the substrate For-Tyr-Arg-NH2).
from orange flavedo. (50 μg/ml; 10 mM substrate)
Eluent: pyridine/butanol/AcOH/H2 O (12:15:3:5).
Reaction: 24 h, RT; 0.05M KPi, pH 7.5., 30° C.
Blank sample without enzyme.

peptide amidase [4] = tested on: peptide amidase
Procedure: A reaction mixture comprising the following constituents was employed:
850 μl of the particular solvent/tris (50 mM; pH 7.5) mixture
100 μl of substrate (10 mM Z-Gly-Tyr-NH2)
50 μl of amidase (40 μg of protein)
The reaction was initiated by the addition of the enzyme to prevent inactivation of the enzyme prior to the reaction.

peptide amidase [5] = assay: Enzymatic cleavage of N-terminal protected dipeptide amides; format: biochemical, orange
Description: The results in Table 7 were obtained using an eluent: TBA/acetonitrile 60/40 (% volume)

peptide amidase [6] = assay: Deamidation of N-terminal protected amino acid amides; format: biochemical, orange; details: for Spec. Activity / Yield: 10 mM substrate, 50 μg.ml peptide amidase, pH 7.0, 30° C.; for Spec. Activity: 50 mM tris/HCl
Procedure: Separating conditions according to Example 3A were employed.
Eluent: TBA/acetonitrile 65:35 (90:10 for Bz-Arg-NH2)
Reaction conditions: 10 mM substrate; 50 μg.ml peptide amidase; 50 mM
tris/HCl; pH 7.0; Temperature 30° C.

peptide amidase [7] = assay: Effect of the acetone concentration on kinetic parameters Km and Vmax; format: biochemical, orange
Procedure: Substrate: Z--Gly--Tyr--NH2; 40 μg/ml peptide amidase in 50 mM

[8] = 10 mM substrate, 40 μg/ml peptide amidase, 50 mM tris/HCL, pH 7.0, 30° C., 360 min
[9] = inhibitor 0.01 m (10 mM), standard conditions of Example 1
[10] = 89.1% solvent, substrate Z-Gly-Tyr-NH2
[11] = enzymatic cleavage of the C-terminal amide
[12] = peptide amidase, pH 7, 10000 µM

Luteinizing Hormone Releasing Factor [LHRH]
Yield (peptide amidase [1]; [8]): 90 %/6 h

[Cl][Hg][Cl] [HgCl2]
% activity remaining (peptide amidase [2]; [9]): 95%

NC(=O)[C@@H](N)Cc1c[nH]c2ccccc12 [Trp--NH2]
Reaction [3]: 0

CCO [Ethanol]
Activity (peptide amidase [4]; 5.0% solvent): 1.269 U/mg | Activity (peptide amidase [4]; 18.0% solvent): 0.938 U/mg | Activity (peptide amidase [4]; 27.0% solvent): 0.814 U/mg | Activity (peptide amidase [4]; 36.0% solvent): 0.613 U/mg | Activity (peptide amidase [4]; 45.0% solvent): 0.448 U/mg | Activity (peptide amidase [4]; 54.0% solvent): 0.284 U/mg | Activity (peptide amidase [4]; 63.0% solvent): 0.204 U/mg | Activity (peptide amidase [4]; 72.0% solvent): 0.149 U/mg | Activity (peptide amidase [4]; [10]): 0.083 U/mg

C[C@@H]1C[C@@H]([C@H](O)CC2CC(=O)NC(=O)C2)C(=O)[C@@H](C)C1 [Cycloheximide]
% activity remaining (peptide amidase [2]; [9]): 98%

Bz--Tyr--Thr--NH2
Yield (peptide amidase [5]; [11]): 63%

NC(=O)CI [Iodoacetamide]
% activity remaining (peptide amidase [2]; [9]): 99%

NCC(=O)O [Glycine]
% activity remaining (peptide amidase [2]): 99%

[N-]=[N+]=[N-].[Na+] [NaN3]
% activity remaining (peptide amidase [2]; [9]): 100%

CCN1C(=O)C=CC1=O [EMI, ethylmaleimide]
% activity remaining (peptide amidase [2]; [9]): 100%

NNC(N)=O [Semicarbazide]
% activity remaining (peptide amidase [2]; [9]): 102%

CSCC[C@H](N)C(N)=O [Met--NH2]
Reaction [3]: 0

N=C(N)NCCC[C@H](NC(=O)[C@@H]1CCCN1)C(=O)NCC(N)=O [H--Pro--Arg--Gly--NH2] (H-Pro-Arg-Gly-NH2)
Yield (peptide amidase [1]; peptide amidase, 6 h, 10000 µM, pH 7): 100 %/6 h

Bz--Tyr--Val--NH2
Yield (peptide amidase [5]; [11]): 100%

Bz--Tyr--Leu--NH2
Yield (peptide amidase [5]; [11]): 100%

CCCO [Propanol]
Activity (peptide amidase [4]; 5.0% solvent): 0.927 U/mg | Activity (peptide amidase [4]; 18.0% solvent): 0.772 U/mg | Activity (peptide amidase [4]; 27.0% solvent): 0.474 U/mg | Activity (peptide amidase [4]; 36.0% solvent): 0.342 U/mg | Activity (peptide amidase [4]; 45.0% solvent): 0.12 U/mg | Activity (peptide amidase [4]; 54.0% solvent): 0.1 U/mg | Activity (peptide amidase [4]; 63.0% solvent): 0.1 U/mg | Activity (peptide amidase [4]; 72.0% solvent): 0.1 U/mg | Activity (peptide amidase [4]; [10]): 0.05 U/mg

NC(=O)[C@@H](N)Cc1ccccc1 [Phe--NH2]
Reaction [3]: 0

CC(C)C[C@H](NC(=O)[C@H](Cc1ccccc1)NC(=O)CNC(=O)CNC(=O)[C@@H](N)Cc1ccc(O)cc1)C(N)=O [H--Tyr--Gly--Gly--Phe--Leu--NH2, Leu-Enkephalin]
Yield (peptide amidase [1]; [8]): 100 %/6 h

NC(=O)[C@H](Cc1ccccc1)NC(=O)CNC(=O)OCc1ccccc1 [Z--Gly--Phe--NH2] (Cbz-Gly-Phe-NH2)
Yield (peptide amidase [5]; peptide amidase): 100%

Bz--Tyr--Ile--NH2
Yield (peptide amidase [5]; [11]): 100%

CC(=O)N[C@@H](Cc1c[nH]c2ccccc12)C(N)=O [Ac--Trp--NH2]
Spec. Activity (peptide amidase [6]): 2.32 U/mg | Yield (peptide amidase [6]; 28 min): 32.4 %/28 min | Yield (peptide amidase [6]; 120 min): 100 %/2 h | Yield after 45 min (peptide amidase [6]; [12]): 48.9%

NC(=O)[C@H](N)Cc1ccccc1 [D-Phe--NH2]
Reaction [3]: 0

N=C(N)NCCC[C@H](NC(=O)OCc1ccccc1)C(=O)N[C@@H](CCCNC(=N)N)C(=O)Nc1ccc([N+](=O)[O-])cc1 [Z--Arg--Arg--pNa, reference compound] (Cbz-Arg-Arg-pNA)
reaction (in words) (peptide amidase [5]; comparison, 12 h): No reaction in 12 h

C[C@@H](O)[C@H](N)C(N)=O [Thr--NH2]
Reaction [3]: 0

Bz--Tyr--Trp--NH2
Yield (peptide amidase [5]; [11]): 39%

Mal--Tyr--Arg--NH2
Yield (peptide amidase [5]; [11]): 100%

NC(=O)[C@@H](N)Cc1cnc[nH]1 [His--NH2]
Reaction [3]: 0

O=S(=O)(F)Cc1ccccc1 [PMSF, phenylmethanesulfonyl fluoride]
inhibition of peptide amidase (in words) (peptide amidase [2]): significantly inhibited | % activity remaining (peptide amidase [2]; [9]): 55% | inhibition of peptide amidase (in words) (peptide amidase [2]; listed as phenylmethanesulfonyl fluoride): weak inhibition

Bz--Tyr--Ser--NH2
Yield (peptide amidase [5]; [11]): 41%

N=C(N)NCCC[C@H](N)C(N)=O [Arg--NH2]
Reaction [3]: 0

N=C(N)NCCC[C@H](NC(=O)c1ccccc1)C(N)=O [Bz--Arg--NH2]
variation of Km and Vmax with solvent concentration (in words) (peptide amidase [7]): did not vary significantly | Spec. Activity (peptide amidase [6]): 4.39 U/mg | Yield (peptide amidase [6]; 28 min): 61.6 %/28 min | Yield (peptide amidase [6]; 120 min): 100 %/2 h | Yield after 45 min (peptide amidase [6]; [12]): 73.5%

NC(=O)[C@H](Cc1ccccc1)NC(=O)[C@@H]1CCCN1C(=O)OCc1ccccc1 [Z--Pro--Phe--NH2] (Cbz-Pro-Phe-NH2)
Yield (peptide amidase [5]; peptide amidase): 100%

Bz--Tyr--Lys--NH2
Yield (peptide amidase [5]; [11]): 100%

NC(=O)[C@H](Cc1ccc(O)cc1)NC(=O)c1ccccc1 [Bz--Tyr--NH2]
Yield (peptide amidase [5]; [11]): 100% | Spec. Activity (peptide amidase [6]): 6.34 U/mg | Yield (peptide amidase [6]; 28 min): 88.7 %/28 min | Yield (peptide amidase [6]; 120 min): 100 %/2 h | yield after 15 minutes (peptide amidase [6]; [12]): 47.6%

NC(=O)[C@@H](N)Cc1ccc(O)cc1 [Tyr--NH2]
Reaction [3]: 0

NCCCC[C@H](N)C(N)=O [Lys--NH2]
Reaction [3]: 0

N=C(N)NCCC[C@H](NC(=O)[C@H](Cc1ccc(O)cc1)NC=O)C(N)=O [For--Tyr--Arg--NH2]
Yield (peptide amidase [5]; peptide amidase): 100%

NC(=O)[C@H](Cc1c[nH]c2ccccc12)NC(=O)OCc1ccccc1 [Z--Trp--NH2]
Spec. Activity (peptide amidase [6]): 0.37 U/mg | Yield (peptide amidase [6]; 28 min): 5.16 %/28 min | Yield (peptide amidase [6]; 120 min): 23.5 %/2 h | Yield after 45 min (peptide amidase [6]; [12]): 14.9%

O=C(O)c1cc[c]([Hg][OH])cc1 [p-OHMBA, parahydroxymercuribenzoate]
% activity remaining (peptide amidase [2]; [9]): 96%

N[C@@H]1CON=C1O [Cycloserine]
% activity remaining (peptide amidase [2]; [9]): 100%

CC(C)C[C@H](NC(=O)OC(C)(C)C)C(=O)N[C@H](C(N)=O)C(C)C [Boc--Leu--Val--NH2] (Boc-Leu-Val-NH2)
Yield (peptide amidase [5]; peptide amidase): 20%

CC(C)=O [Acetone]
Activity (peptide amidase [4]; 5.0% solvent): 2.011 U/mg | Activity (peptide amidase [4]; 18.0% solvent): 1.863 U/mg | Activity (peptide amidase [4]; 27.0% solvent): 1.748 U/mg | Activity (peptide amidase [4]; 36.0% solvent): 1.527 U/mg | Activity (peptide amidase [4]; 45.0% solvent): 1.38 U/mg | Activity (peptide amidase [4]; 72.0% solvent): 0.585 U/mg | Activity (peptide amidase [4]; [10]): 0.224 U/mg

CC(C)[C@H](N)C(N)=O [Val--NH2]
Reaction [3]: 0

NC(=O)[C@H](Cc1ccc(O)cc1)NC(=O)CNC(=O)OCc1ccccc1 [Z--Gly--Tyr--NH2, benzyloxycarbonyl-glycyltyrosinamide] (Cbz-Gly-Tyr-NH2)
Vmax (peptide amidase [7]; 5% acetone): 2.93 U/mg | Km (peptide amidase [7]; 5% acetone, 40 μg/ml peptide amidase, pH 7.5): 0.063 mM | Km (peptide amidase [7]; 20% acetone): 1.6 mM | Vmax (peptide amidase [7]; 20% acetone): 2.54 U/mg | Km (peptide amidase [7]; 40% acetone): 5.5 mM | Vmax (peptide amidase [7]; 40% acetone): 2.57 U/mg | Km (peptide amidase [7]; 60% acetone): 19.6 mM | Vmax (peptide amidase [7]; 60% acetone): 2.58 U/mg | Yield (peptide amidase [5]; peptide amidase): 100%

C[C@H](N)C(N)=O [Ala--NH2]
Reaction [3]: 0

CC(C)C[C@H](N)C(N)=O [Leu--NH2]
Reaction [3]: 0

O[C@H](CS)[C@H](O)CS (racemic) [Dithiothreitol]
% activity remaining (peptide amidase [2]; [9]): 100%

C[C@@H](N)C(N)=O [D-Ala--NH2]
Reaction [3]: 0

CC(C)C[C@@H](N)C(N)=O [D-Leu--NH2]
Reaction [3]: 0

NC(=O)[C@@H](N)CO [Ser--NH2]
Reaction [3]: 0

O=C(O)CN(CCN(CC(=O)O)CC(=O)O)CC(=O)O [EDTA, ethylenedinitrilotetraacetic acid]
% activity remaining (peptide amidase [2]): 92%

CC[C@H](C)[C@H](N)C(N)=O [Ile--NH2]
Reaction [3]: 0

Bz--Tyr--Ala--NH2
Yield (peptide amidase [5]; [11]): 65%
